The NIST ThermoML archive (doi:10.1016/j.jct.2006.10.017)
Numbers after ± are expanded uncertainties.

Assays:
[1] = 101 kPa, Liquid
[2] = refractive index (Na D-line) (dimensionless); conditions: 101.33 kPa, Liquid
[3] = refractive index (Na D-line) (dimensionless); xn = mol fraction of the nth substance listed; conditions: 101 kPa, Liquid, x2 = 0
[4] = xn = mol fraction of the nth substance listed; conditions: 101 kPa, Liquid, x2 = 0

Compound: CCCCCCn1cc[n+](C)c1.F[P-](F)(F)(F)(F)F [1-hexyl-3-methylimidazolium hexafluorophosphate]
- mass density ([1]; 293.15 K): 1297.9 ± 2.5 kg/m3
- speed of sound ([1]; 293.15 K): 1438 ± 12 m/s
- mass density ([1]; 298.15 K): 1293.7 ± 2.5 kg/m3
- speed of sound ([1]; 298.15 K): 1424 ± 11 m/s
- mass density ([1]; 303.15 K): 1289.6 ± 2.5 kg/m3
- speed of sound ([1]; 303.15 K): 1411 ± 11 m/s
- refractive index ([2]; 293.15 K): 1.41923 ± 0.0013
- refractive index ([2]; 298.15 K): 1.41787 ± 0.0013
- refractive index ([2]; 303.15 K): 1.41643 ± 0.0013

Compound: CCCCn1cc[n+](C)c1.F[P-](F)(F)(F)(F)F [1-butyl-3-methylimidazolium hexafluorophosphate]
- mass density ([1]; 293.15 K): 1371.6 ± 2.9 kg/m3
- speed of sound ([1]; 293.15 K): 1455 ± 12 m/s
- mass density ([1]; 298.15 K): 1367.3 ± 2.9 kg/m3
- speed of sound ([1]; 298.15 K): 1443 ± 12 m/s
- mass density ([1]; 303.15 K): 1363 ± 2.9 kg/m3
- speed of sound ([1]; 303.15 K): 1431 ± 12 m/s
- refractive index ([2]; 293.15 K): 1.41069 ± 0.0013
- refractive index ([2]; 298.15 K): 1.40937 ± 0.0013
- refractive index ([2]; 303.15 K): 1.40808 ± 0.0013

Compound: COS(=O)(=O)[O-].Cn1cc[n+](C)c1 [1,3-dimethylimidazolium methylsulfate]
- mass density ([1]; 293.15 K): 1330.9 ± 2.7 kg/m3
- speed of sound ([1]; 293.15 K): 1826 ± 14 m/s
- mass density ([1]; 298.15 K): 1327.2 ± 2.7 kg/m3
- speed of sound ([1]; 298.15 K): 1813 ± 14 m/s
- mass density ([1]; 303.15 K): 1323.7 ± 2.7 kg/m3
- speed of sound ([1]; 303.15 K): 1801 ± 14 m/s
- refractive index ([2]; 293.15 K): 1.48392 ± 0.0013
- refractive index ([2]; 298.15 K): 1.4827 ± 0.0013
- refractive index ([2]; 303.15 K): 1.48129 ± 0.0013

Compound: CCO [ethanol] + CCCCCCn1cc[n+](C)c1.F[P-](F)(F)(F)(F)F
- refractive index ([3]; 293.15 K): 1.36138 ± 0.0013
- refractive index ([3]; 298.15 K): 1.35929 ± 0.0013
- refractive index ([3]; 303.15 K): 1.35725 ± 0.0013
- mass density ([4]; 293.15 K): 789.3 ± 0.9 kg/m3
- speed of sound ([4]; 293.15 K): 1160 ± 10 m/s
- mass density ([4]; 298.15 K): 785.1 ± 0.9 kg/m3
- speed of sound ([4]; 298.15 K): 1143 ± 10 m/s
- mass density ([4]; 303.15 K): 780.7 ± 0.9 kg/m3
- speed of sound ([4]; 303.15 K): 1127 ± 9 m/s

Compound: CCO [ethanol] + CCCCCCCC[n+]1ccn(C)c1.F[P-](F)(F)(F)(F)F
- refractive index ([3]; 293.15 K): 1.36138 ± 0.0013
- refractive index ([3]; 298.15 K): 1.35929 ± 0.0013
- refractive index ([3]; 303.15 K): 1.35725 ± 0.0013
- mass density ([4]; 293.15 K): 789.3 ± 0.9 kg/m3
- speed of sound ([4]; 293.15 K): 1160 ± 10 m/s
- mass density ([4]; 298.15 K): 785.1 ± 0.9 kg/m3
- speed of sound ([4]; 298.15 K): 1143 ± 10 m/s
- mass density ([4]; 303.15 K): 780.7 ± 0.9 kg/m3
- speed of sound ([4]; 303.15 K): 1127 ± 9 m/s

Compound: CCO [ethanol] + COS(=O)(=O)[O-].Cn1cc[n+](C)c1
- refractive index ([3]; 293.15 K): 1.36138 ± 0.0013
- refractive index ([3]; 298.15 K): 1.35929 ± 0.0013
- refractive index ([3]; 303.15 K): 1.35725 ± 0.0013
- mass density ([4]; 293.15 K): 789.3 ± 0.9 kg/m3
- speed of sound ([4]; 293.15 K): 1160 ± 10 m/s
- mass density ([4]; 298.15 K): 785.1 ± 0.9 kg/m3
- speed of sound ([4]; 298.15 K): 1143 ± 10 m/s
- mass density ([4]; 303.15 K): 780.7 ± 0.9 kg/m3
- speed of sound ([4]; 303.15 K): 1127 ± 9 m/s
